“Also recorded” adds a separate entry of the source.
What was measured:
insulin mRNA = assay: Insulin mRNA levels by quantitative PCR; type: cell-based; conditions: FIG. 2
Procedure: (§1) Expression of Insulin and HNF4α. RNA was purified using a RNEASY® chromatographic separation and isolation kits (Qiagen), and converted to cDNA using the gScript™ cDNA SuperMix (Quanta Biosciences). Q-PCR was conducted with cDNA corresponding to 2 μg of RNA using an Opticon Real-Time System (MJ Research) and QPCR SuperMix (BioPioneer). See All mRNA values were normalized to 18S rRNA values and are expressed as fold changes over vehicle-treated control.

T6PNE cells = assay: Lipid clearance (steatosis assay) in T6PNE cells; type: cell-based; conditions: for fat accumulation: T6PNE cells, 0.25 mM palmitate, 10 μM compound
Procedure: T6PNE cells were pretreated for 1 day with 0.06 mM, 0.12 mM or 0.25 mM palmitate at which time 15 μM N-trans-caffeoyltyramine or control (DMSO) was added. Cells were harvested on day 3, 6 and 8 and subjected to staining with Nile Red and […]. Results are expressed as fold change in Nile Red staining: +palmitate/10% FBS medium (no palmitate).
(§2) Lipid Clearance in HepG2 and T6PNE Cells (Steatosis Assay). The steatosis assay was carried out as described (Kiselyuk, et al. (2012) Chem. Biol. 19(7):806-818) with the exception of the drug concentration, which was 20 μM for N-trans-caffeoyltyramine with 0.25 mM palmitate in HepG2 cell lines, and 10 μM of either N-trans-caffeoyltyramine, N-trans-caffeoyltyramine, or p-coumaroyltyramine, with 0.25 mM palmitate in T6PNE cell lines. Steatosis was assessed using the Oil Red O Method for Fats kits (Poly Scientific; Warrington, PA), per manufacturer's guidelines. Briefly, frozen tissue slides or fixed cells were incubated in neat propylene glycol for 2 minutes and Oil Red O solution for […] for slides or 1 hour for fixed cells, differentiated in 85% propylene glycol solution for 1 minute, washed twice with distilled water and stained in Hematoxylin of 10 seconds. Slides were mounted with glycerin jelly mounting medium.

HNF4α = target: T1, HNF4α (Homo sapiens, UniProt P41235); assay: Insulin promoter activity assay (HNF4α assay) in T6PNE cells; type: cell-based; conditions: for HNF4α activation / bioactivity (screening result in words): HNF4α assay, screening and SAR statements
T1 construct: T6PNE cells (Kiselyuk, et al. (2012) Chem. Biol. 19(7):806-818; Kiselyuk, et al. (2010) J. Biomol; endogenous in cells; host or cells: T6PNE cells
T1 sequence (P41235 1-474): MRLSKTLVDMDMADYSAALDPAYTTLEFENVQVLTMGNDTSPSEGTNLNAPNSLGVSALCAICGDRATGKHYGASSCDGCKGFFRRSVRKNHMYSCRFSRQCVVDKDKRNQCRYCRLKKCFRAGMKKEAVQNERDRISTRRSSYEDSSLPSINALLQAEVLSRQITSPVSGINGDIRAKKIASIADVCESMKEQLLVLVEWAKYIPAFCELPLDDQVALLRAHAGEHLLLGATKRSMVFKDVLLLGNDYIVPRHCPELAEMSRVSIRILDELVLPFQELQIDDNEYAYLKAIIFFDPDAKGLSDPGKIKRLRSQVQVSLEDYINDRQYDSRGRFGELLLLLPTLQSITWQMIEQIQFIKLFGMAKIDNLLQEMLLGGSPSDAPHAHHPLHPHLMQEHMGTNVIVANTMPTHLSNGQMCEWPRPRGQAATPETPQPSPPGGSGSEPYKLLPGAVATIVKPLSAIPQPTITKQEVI
Procedure: Insulin Promoter Activity. T6PNE cells (Kiselyuk, et al. (2012) Chem. Biol. 19(7):806-818; Kiselyuk, et al. (2010) J. Biomol. Screen 15(6):663-70) are seeded at 2000 cells per well in 384-well tissue culture plates in the presence of 1 μM tamoxifen and 0.03 mM palmitate. After a 24-hour incubation, a compound of the invention is added to the cells. Forty-eight hours after compound addition, cells are fixed in 4% paraformaldehyde and stained with DAPI. Blue (DAPI) and green (human insulin promoter driving GFP) channels are imaged.
Inhibition of HNF4α GFP Expression. Using the insulin promoter assay described herein, activity of HNF4α was assessed in the presence of BI-6015 (0, 2.5, 5 μM), a known antagonist of HNF4α (Kiselyuk, et al. (2012) Chem. Biol. 19(7):806-818), in combination with N-trans-caffeoyltyramine (0, 5, 10, 20 μM).
Given the role of HNF4α in maintaining a health metabolism in humans, test compounds were screened for activity as HNF4α agonists (either direct or indirect effects). Using a known insulin promoter-reporter assay Kiselyuk and colleagues (2010. J. Biomol. Screen 15(6):663-70) screened a library of compounds for activity to promote insulin activation. […] The OTC promoter is known to be responsive to HNF4α in transient transfection assays (Inoue, et al. (2002) J. Biol. Chem. 277:25257-65).
Plant compounds in the top 10th percentile of similarity to the 18 target structures were selected and compounds predicted to be potential agonists of HNF4α activity given their chemical structural features were screened in the HNF4α assay.

HNF4α mRNA = HNF4α mRNA levels by quantitative PCR; type: cell-based; conditions: FIG. 3
Procedure: as §1

pH stability assessment = type: physicochemical; conditions: pH 2, 7.4, 8.5 and 10, 37° C., 0.5 vs 72 hours
Procedure: pH Stability Assessment. Individual stock solutions were prepared in DMSO at concentrations of 10 mg/mL. Four different buffer solution s were prepared to achieve solutions with a pH of 2, 7.4, 8.5 and 10. For each pH assay, 5 μL of stock solution was added to 245 μL of buffered solution to a 2 mL tube, vortexed and incubated in a 37° C. water bath. At each timepoint, 50 μL aliquots were taken, neutralized and analyzed via HPLC analysis using a DAD detector at 280 nm. The fold change of the peak area at 280 nm was analyzed for the initial and final timepoint, 0.5 and 72 hours, respectively.

HepG2 cells = assay: Lipid clearance (steatosis assay) in HepG2 cells; type: cell-based; conditions: HepG2 liver cells, 20 μM
Procedure: as §2

[1] = Bioavailability determination in male C57BL/6 mice; conditions: IV 2 mg/kg vs oral or IP 30 mg/kg, route not stated in Table 3
E47MER = assay: Counter-screen for estrogenic activity (E47MER luciferase reporter in HeLa cells); type: cell-based, human; conditions: with 1 μM or without tamoxifen, FIG. 5
Procedure: Counter-Screen for Estrogenic Activity. Estrogenic activity was monitored by co-transfection of a reporter plasmid containing a multimerized E-box 5′ of a minimal promoter fused to the Firefly luciferase gene with wild-type E47 or E47MER (Kiselyuk, et al. (2010) J. Biomol. Screen 15(6):663-70). HeLa cells were transfected using polyethylenimine, 0.2 μg 4RTK-Luc plasmid and either 0.3 μg of human E47, E47MER or pMSCVhph vector in 50 μl of serum-free Dulbecco's modification of Eagle medium per well. Transfections included Renilla luciferase (pRL-TK) plasmid as a control for transfection efficacy. Transfection conditions were as described in the PPRE-Luc reporter assay of Kiselyuk, et al. ((2010) J. Biomol. Screen 15(6):663-70). Sixteen hours after transfection, culture media were changed and maintained for 48 hours with tamoxifen and/or compound or vehicle (DMSO). Cells were then lysed and assayed for luciferase activity using the Promega DUAL-LUCIFERASE® reporter assay kit (Promega Corp., Madison, WI), and luminescence was measured using the Veritas™ Microplate Luminometer (Turner Biosystems, Sunnyvale, CA). Data were normalized to Renilla luciferase (pRL-TK) and expressed as fold-change over vehicle alone.

O=C(/C=C/c1ccc(O)cc1)NCCc1ccc(O)cc1 [p-coumaroyltyramine]
insulin gene expression (insulin mRNA): upregulated | fat accumulation (T6PNE cells): inhibition of fat accumulation | HNF4α activation / bioactivity (screening result in words) (HNF4α): able to act as HNF4α modulators | HNF4α activation / bioactivity (screening result in words) (HNF4α; listed as N-trans-coumaroyltyramine): additional reduction but not eradication of bioactivity | HNF4α gene expression (HNF4α mRNA): upregulated

O=C(/C=C/c1ccc(O)cc1)NCC(O)c1ccc(O)cc1 (centres unmarked) [p-coumaroyloctopamine]
insulin gene expression (insulin mRNA): inactive | HNF4α gene expression (HNF4α mRNA): inactive

COc1cc(/C=C\C(=O)NCCc2ccc(O)cc2)ccc1O [cis-feruloyltyramine]
insulin gene expression (insulin mRNA): inactive | HNF4α activation / bioactivity (screening result in words) (HNF4α): complete loss of HNF4α activation | HNF4α gene expression (HNF4α mRNA): inactive

COc1cc(/C=C/C(=O)NCC(O)c2ccc(O)cc2)ccc1O (stereo not drawn) [N-trans-feruloyloctopamine]
insulin gene expression (insulin mRNA): inactive | HNF4α activation / bioactivity (screening result in words) (HNF4α): complete loss of HNF4α activation | HNF4α gene expression (HNF4α mRNA): inactive

O=C(C=CCCc1ccccc1)CCc1ccccc1 [1,7-diphenylhept-4-en-3-one]
HNF4α activation / bioactivity (screening result in words) (HNF4α): complete loss of bioactivity

Cc1ccc([N+](=O)[O-])cc1S(=O)(=O)n1c(C)nc2ccccc21 [BI-6015, reference compound]
effect on N-trans-caffeoyltyramine-mediated increases in insulin expression (HNF4α; BI-6015 0, 2.5, 5 μM with N-trans-caffeoyltyramine 0, 5, 10, 20 μM, FIG. 4): inhibited

O=C(C=Cc1ccccc1)NCCc1ccccc1 [N-2-phenylethylcinnamide]
HNF4α activation / bioactivity (screening result in words) (HNF4α): complete loss of bioactivity

O=C(/C=C/c1ccc(O)cc1)NCCc1ccc(O)c(O)c1 [N-coumaroyldopamine]
insulin gene expression (insulin mRNA): inactive | HNF4α activation / bioactivity (screening result in words) (HNF4α): complete loss of HNF4α activation | HNF4α gene expression (HNF4α mRNA): inactive

COc1cc(/C=C/C(=O)NCCc2ccc(O)cc2)ccc1O [N-trans-feruloyltyramine]
pH Stability (pH stability assessment): Stable | clearing of fats, Oil Red O staining (HepG2 cells): capable of clearing harmful fats from the liver | accumulation of fats (HepG2 cells; 0.25 mM palmitate): inhibited accumulation of fats | insulin gene expression (insulin mRNA): upregulated | bioavailability [1]: ~7% | estrogenic activity (E47MER): did not exhibit estrogenic activity | lipid accumulation when palmitate was added prior to compound (T6PNE cells; T6PNE cells pretreated 1 day with 0.06-0.25 mM palmitate, 15 μM compound, Nile Red, FIG. 6): can reverse fat accumulation | fat accumulation (T6PNE cells): inhibition of fat accumulation | HNF4α activation / bioactivity (screening result in words) (HNF4α): able to act as HNF4α modulators; also recorded: reduces but does not eradicate bioactivity | HNF4α gene expression (HNF4α mRNA): upregulated
